US10969396B2, “In vitro method, use of an agent and collection device for the inhibition of coagulation in blood” (priority 2013, dated 2021)
Where a name gives a salt, the structure may show the parent alone.

System: activated partial thromboplastin time (APTT)
Assay: activated partial thromboplastin time (APTT) determination
Set-up: species or system human
Conditions: Example 1, plasma, N 48
Experimental: Tetrahydrofuran-2,3,4,5-tetracarboxylic acid (THTCA) was from TCI, Germany. Pristine blood collection tubes, i.e. tubes as originally provided not containing or respectively not filled or coated with additive, were from KABE Labortechnik GmbH, Germany, denoted KABEVETTE (GR).
Blood was collected from the antecubital vein from volunteers who had previously given their informed consent. […] Tubes were filled with blood completely to the mark (4.9 mL), and for tubes containing anticoagulant the blood was mixed well with the respective anticoagulant by inverting the tubes 4 times immediately after blood collection. Serum samples were treated according to the protocol of the manufacturer and used for biochemical analysis. […] Potassium EDTA plasma was also used for biochemical determinations.
The analyses of metabolites, minerals, and enzymes were performed using the automated analyzers cobas 6000 C and 6000 E. Haemostasis tests and haematologic parameters were measured by STA-R (Diagnostica Stago) analyzer and LH 780 analyzer (Beckman Coulter) respectively.

SMILES | APTT Mean | APTT Mean (listed as GR 15, monohydrate)
O=C(O)CC(O)(CC(=O)O)C(=O)O [citrate (BD), sodium citrate] | 29.71 s | –
O=C(O)CC(O)(CC(=O)O)C(=O)O [CA, Citric acid monohydrate] | – | 29.94 s
